Results: ChEMBL document CHEMBL3886421, “6-thio-substituted imidazo[1,2-a]pyrazines as Mps-1 inhibitors” (2015)

Target: T1, Dual specificity protein kinase TTK (Homo sapiens, UniProt P33981)
T1 sequence (P33981 whole entry): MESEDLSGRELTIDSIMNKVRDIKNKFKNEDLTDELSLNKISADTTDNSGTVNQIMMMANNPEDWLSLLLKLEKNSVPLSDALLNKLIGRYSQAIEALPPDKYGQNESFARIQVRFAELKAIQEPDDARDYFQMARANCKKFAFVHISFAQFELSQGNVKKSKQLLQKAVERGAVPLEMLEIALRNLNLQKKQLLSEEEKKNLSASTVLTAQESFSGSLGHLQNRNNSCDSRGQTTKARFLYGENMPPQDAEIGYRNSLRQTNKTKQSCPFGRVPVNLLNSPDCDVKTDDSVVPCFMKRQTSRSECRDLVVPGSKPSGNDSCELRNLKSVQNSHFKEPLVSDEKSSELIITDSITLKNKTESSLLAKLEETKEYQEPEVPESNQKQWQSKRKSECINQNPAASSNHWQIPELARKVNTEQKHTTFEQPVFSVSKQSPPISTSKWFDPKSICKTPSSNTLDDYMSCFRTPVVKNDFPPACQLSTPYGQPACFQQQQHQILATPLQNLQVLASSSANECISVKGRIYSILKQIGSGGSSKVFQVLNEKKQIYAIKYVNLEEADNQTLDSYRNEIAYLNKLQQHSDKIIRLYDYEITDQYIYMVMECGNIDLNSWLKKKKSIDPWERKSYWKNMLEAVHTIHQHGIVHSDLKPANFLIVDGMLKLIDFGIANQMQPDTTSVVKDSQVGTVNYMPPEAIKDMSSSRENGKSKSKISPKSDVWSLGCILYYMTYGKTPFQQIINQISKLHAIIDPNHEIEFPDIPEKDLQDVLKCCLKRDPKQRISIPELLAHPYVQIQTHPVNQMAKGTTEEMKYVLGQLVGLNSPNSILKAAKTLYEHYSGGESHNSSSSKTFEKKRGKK
Assay: Kinase Assay: For the assay 50 nL of a 100-fold concentrated solution of the test compound in DMSO was pipetted into a black low volume 384 well microtiter plate (Greiner Bio-One, Frickenhausen, Germany), 2 ul of a solution of Mps-1 in assay buffer [0.1 mM sodium-ortho-vanadate, 10 mM MgCl2, 2 mM DTT, 25 mM Hepes pH 7.7, 0.05% BSA, 0.001% Pluronic F-127] were added and the mixture was incubated for 15 min at 22° C. to allow pre-binding of the test compounds to Mps-1 before the start of the kinase reaction. Then the kinase reaction was started by the addition of 3 ul of a solution of 16.7 adenosine-tri-phosphate (ATP, 16.7 uM=>final conc. in the 5 ul assay volume is 10 uM) and peptide substrate (1.67 uM=>final conc. in the 5 ul assay volume is 1 uM) in assay buffer and the resulting mixture was incubated for a reaction time of 60 min at 22° C. The concentration of Mps-1 in the assay was adjusted to the activity of the enzyme lot.

IC50: 52.1 nM
SMILES: CCCSc1cn2c(-c3ccc(C(=O)NC4CC4)c(C)c3)cnc2c(NCC(C)(C)O)n1
